The results in this text go back to article PMC11336974 (2024).

The test system of the assay is miR-193a-3p (RNA, miRNA) AACUGGCCUACAAAGUCCCAGU
Description: single-strand gel shift. Conditions: 37 °C 30 min, 200 µM Trp; 15% native PAGE, 0.5x TBE.

Regarding `N[C@@H](Cc1c[nH]c2ccccc12)C(=O)O`, the binding result is “yes”.
